Measurements from patent US9174966B2, “Crystalline forms of 6-(1H-imidazol-1-yl)-2-phenylquinazoline” (ROTTAPHARM S.P.A., priority 2009, dated 2015).
Values joined by “and” are separate entries in the source; they are usually repeats but may differ in a detail not shown here. Identical values can stand only once. “Also recorded” adds a separate entry of the source. Counter-ions that a name gives are not always drawn. Like-named read-outs stand apart in the source and are kept apart here.

Columns and labels:
[1] = Thermal stability of the crystalline form (XRPD)
[2] = Pharmacokinetics in rats, oral versus intravenous administration; type: in vivo; details: for half-life: read-out: T½
Description: The samples are analysed by HPLC-MS to determine the content of 6-(1H-imidazol-1-yl)-2-phenylquinazoline, using diphenylhydramine hydrochloride as internal standard. The pharmacokinetic parameters measured are summarized hereinbelow: it is noted that, despite the fact that the polymorph under consideration is of low solubility, the bioavailability (F %) is entirely acceptable.
The pharmacokinetic parameters measured are summarized hereinbelow: it is noted that the salt under consideration has optimum bioavailability (F %). […]

[3] = Solubility in aqueous solution of NaCl 0.9% (UV absorbance at 260 nm); type: physicochemical; details: aqueous NaCl 0.9%, stirred 500 rpm, 24 hours at 37° C.; for solubility at 24 h: aqueous solution of NaCl 0.9%, 37 °C, saline or isotonic, thermodynamic from solid
Description: The solubility is 0.6 mg/mL. […]
The sample of 6-(1H-imidazol-1-yl)-2-phenylquinazoline phosphate, form A, is stirred in an aqueous solution of NaCl 0.9%, at 500 rpm, so as to obtain a suspension (50 mg in 2 mL), for 24 hours at 37° C.
(§1) The sample of 6-(1H-imidazol-1-yl)-2-phenylquinazoline phosphate, form A, is stirred in an aqueous solution of NaCl 0.9%, at 500 rpm, so as to obtain a suspension (70 mg in 2 mL), for 24 hours at 37° C. […] The dissolution rate is measured by adding 2 mg of product to 40 mL of water at 37° C., stirring at 500 rpm, and measuring the absorbance at 260 nm every 0.05 min; the dissolution rate is found to be 1.9×10^−4 gr/min.

[4] = Dissolution rate in water at 37° C.; type: physicochemical; details: 2 mg of product in 40 mL of water at 37° C., 500 rpm, absorbance at 260 nm
Description: as §1

[5] = Hygroscopicity noted for the isolated crystalline product; type: physicochemical; details: as noted in the preparation example
[6] = Stability to moisture, DVS analysis (Differential Vapour Sorption); type: physicochemical; details: 25° C.; for hygroscopicity (DVS): hydration/dehydration cycle
Description: The sample placed on a microbalance is subjected, in a chamber of controlled humidity, at 25° C., to a cycle of hydration (increasing humidity, red line) and of dehydration (decreasing humidity, blue line).
The sample of 6-(1H-imidazol-1-yl)-2-phenylquinazoline succinate form A was subjected to DVS analysis (as described in Example 32).
The sample of 6-(1H-imidazol-1-yl)-2-phenylquinazoline L-tartrate dihydrate, form A, was subjected to DVS analysis.
The sample of 6-(1H-imidazol-1-yl)-2-phenylquinazoline maleate, form A, was subjected to DVS analysis.

[7] = Stability to mechanical stress (milling, XRPD); type: physicochemical; details: Retsch MM 200 mill, 50 Hz, 5 min.
Description: 6-(1H-Imidazol-1-yl)-2-phenylquinazoline, polymorph A, was subjected to milling by means of a Retsch MM 200 mill, at 50 Hz for 5 min., and the product thus obtained was analysed by XRPD.
6-(1H-Imidazol-1-yl)-2-phenylquinazoline succinate form A, was subjected to milling by means of a Retsch MM 200 mill, at 50 Hz for 5 min., and the product thus obtained was subjected to XRPD analysis.
6-(1H-Imidazol-1-yl)-2-phenylquinazoline L-tartrate dihydrate, form A, was subjected to milling by means of a Retsch MM 200 mill, at 50 Hz for 5 min., and the product thus obtained was subjected to XRPD analysis.
6-(1H-Imidazol-1-yl)-2-phenylquinazoline maleate, form A, was subjected to milling by means of a Retsch MM 200 mill, at 50 Hz for 5 min., and the product thus obtained was subjected to XRPD analysis.

[8] = 90° C., 12 hours (or at least 12 hours), XRPD
[9] = IV, 5 mg/kg, dihydrochloride monohydrate
[10] = OS (oral), 10 mg/Kg, dihydrochloride monohydrate
[11] = heating at/to 90° C., time not stated, succinate

Question: For “6-(1H-imidazol-1-yl)-2-phenylquinazoline maleate hemihydrate [maleate salt form B]”, which “thermal stability of crystalline form” value ([1]; 40° C., RH 85%, 7 days, XRPD) is on record?
Answer: partially converted into form A

Question: And the “thermal stability of crystalline form” value [1, 8]?
Answer: converted into form A

Question: For `c1ccc(-c2ncc3cc(-n4ccnc4)ccc3n2)cc1` [dihydrochloride monohydrate form A, 6-(1H-imidazol-1-yl)-2-phenylquinazoline dihydrochloride monohydrate], which CL [2, 9] is on record?
Answer: 0.024 L/kg/min

Question: What about the T½ [2, 9] of the same compound?
Answer: 46.6 min

Question: And the V [2, 9]?
Answer: 1.26 L/kg

Question: What about the “F (bioavailability)” value ([2]; OS 10 mg/Kg compared with IV 5 mg/kg, dihydrochloride monohydrate) of the same compound?
Answer: 90.0%

Question: What about the CL [2, 10] of the same compound?
Answer: 0.018 L/kg/min

Question: And the Tmax [2, 10]?
Answer: 80 min

Question: And the T½ [2, 10]?
Answer: 59.9 min

Question: And the V [2, 10]?
Answer: 2.96 L/kg

Question: And the “thermal stability of crystalline form” value ([1]; 40° C., RH 85%, 7 days, XRPD, dihydrochloride monohydrate)?
Answer: stable

Question: What about the “time after which complete conversion into the monohydrochloride is noted” value ([1]; 90° C., VT-XRPD) of the same compound?
Answer: 48 h

Question: And the “time after which formation of the monohydrochloride is noted” value ([1]; 90° C., VT-XRPD)?
Answer: 36 h

Question: What about the “thermal stability of crystalline form” value ([1]; 90° C., several hours) of the same compound?
Answer: stable

Question: What about the solubility at 24 h [3] of the same compound?
Answer: 138000 µg/mL

Question: And the dissolution rate [4]?
Answer: 2.17×10^−3 gr/min

Question: What about the “hygroscopicity of the isolated product” value [5] of the same compound?
Answer: non-hygroscopic

Question: What about the “hygroscopicity (DVS)” value [6] of the same compound?
Answer: in the range 30-80% relative humidity (RH), the product is not particularly hygroscopic

Question: And the “water content (DVS)” value ([6]; range 30-80% relative humidity)?
Answer: about 5%

Question: And the stability to milling ([7]; dihydrochloride monohydrate)?
Answer: No increase in the amount of amorphous product present relative to the reference example, as well as no foreign signals attributable to other forms

Question: Which results are given for `c1ccc(-c2ncc3cc(-n4ccnc4)ccc3n2)cc1` [form B, 6-(1H-imidazol-1-yl)-2-phenylquinazoline monohydrate]?
Answer: thermal stability of crystalline form ([1]; 40° C., RH 85%, 7 days, XRPD, monohydrate): appearance of the signals of form E; behaviour in variable temperature experiment (VT-XRPD) ([1]; heated to between 40° C. and 180° C.): conversion into form E

Question: With `c1ccc(-c2ncc3cc(-n4ccnc4)ccc3n2)cc1` [form C, 6-(1H-imidazol-1-yl)-2-phenylquinazoline monohydrate] as the compound, how does the “thermal stability of crystalline form” value ([1]; 40° C., RH 85%, 5 days (at least 5 days for polymorph A), XRPD) read?
Answer: stable

Question: What about the “thermal stability of crystalline form” value ([1]; 90° C., 3 hours, XRPD, monohydrate) of the same compound?
Answer: complete conversion into form E

Question: With `c1ccc(-c2ncc3cc(-n4ccnc4)ccc3n2)cc1` [form D, 6-(1H-imidazol-1-yl)-2-phenylquinazoline] as the compound, how does the “thermal stability of crystalline form” value ([1]; 40° C., RH 85%, 7 days, XRPD) read?
Answer: stable

Question: And the “thermal stability of crystalline form” value ([1]; 90° C., 3 hours, XRPD)?
Answer: stable

Question: What does the source list for `O=C(O)/C=C/C(=O)O.c1ccc(-c2ncc3cc(-n4ccnc4)ccc3n2)cc1` [fumarate form A, 6-(1H-imidazol-1-yl)-2-phenylquinazoline fumarate]?
Answer: thermal stability of crystalline form ([1]; 40° C., RH 85%, 7 days, XRPD): stable; solubility at 24 h [3]: 1200 µg/mL; dissolution rate [4]: 2.67×10^−5 gr/min; hygroscopicity of the isolated product [5]: non-hygroscopic

Question: With `Cl.c1ccc(-c2ncc3cc(-n4ccnc4)ccc3n2)cc1` [hydrochloride salt form B, 6-(1H-imidazol-1-yl)-2-phenylquinazoline hydrochloride] as the compound, how does the “hygroscopicity of the isolated product” value [5] read?
Answer: hygroscopic

Question: Which results are given for `O=C(O)/C=C\C(=O)O.c1ccc(-c2ncc3cc(-n4ccnc4)ccc3n2)cc1` [maleate form A, 6-(1H-imidazol-1-yl)-2-phenylquinazoline maleate]?
Answer: V ([2]; IV, 5 mg/kg): 1.3 L/kg; CL ([2]; OS (oral), 10 mg/Kg): 0.016 L/kg/min; V ([2]; OS (oral), 10 mg/Kg): 1.90 L/kg; bioavailability ([2]; rat, blood, OS 10 mg/Kg compared with IV 5 mg/kg, read-out: F (bioavailability)): 100%; clearance ([2]; rat, blood, iv, 5 mg/kg): 22 mL/min/kg; half-life ([2]; rat, blood, iv, 5 mg/kg, IV, 5 mg/kg): 45.6 min; Tmax ([2]; rat, blood, po, 10 mg/kg, OS (oral), 10 mg/Kg, read-out: Tmax (converted)): 60 min; half-life ([2]; rat, blood, po, 10 mg/kg, OS (oral), 10 mg/Kg): 45 min; thermal stability of crystalline form ([1]; 40° C., 70% RH, 7 days, XRPD): stable; thermal stability of crystalline form [1, 8]: stable; solubility at 24 h [3]: 7900 µg/mL; dissolution rate [4]: 1.45×10^−3 gr/min; hygroscopicity of the isolated product [5]: non-hygroscopic; hygroscopicity (DVS) ([6]; maleate): not hygroscopic in the range 0-85% RH; also recorded: not particularly hygroscopic even at values of greater than 85% RH; stability to milling [7]: has not undergone any changes of crystalline form, but a slight increase in the presence of amorphous product is revealed, which recrystallizes within a few hours on standing

Question: With `O=P(O)(O)O.c1ccc(-c2ncc3cc(-n4ccnc4)ccc3n2)cc1` [phosphate, form A, 6-(1H-imidazol-1-yl)-2-phenylquinazoline phosphate] as the compound, how does the solubility ([3]; phosphate) read?
Answer: 3.6 mg/mL

Question: What about the solubility at 24 h [3] of the same compound?
Answer: 6200 µg/mL

Question: And the dissolution rate ([4]; phosphate)?
Answer: 1.73×10^−4 gr/min and 1.9×10^−4 gr/min

Question: Which results are given for `O=C(O)CCC(=O)O.c1ccc(-c2ncc3cc(-n4ccnc4)ccc3n2)cc1` [succinate salt form B, 6-(1H-imidazol-1-yl)-2-phenylquinazoline succinate]?
Answer: thermal stability of crystalline form [1, 11]: converted into form A; hygroscopicity of the isolated product ([5]; succinate): non-hygroscopic

Question: Which “thermal stability of crystalline form” value [1, 11] does the source give for `O=C(O)CCC(=O)O.c1ccc(-c2ncc3cc(-n4ccnc4)ccc3n2)cc1` [succinate salt form C, 6-(1H-imidazol-1-yl)-2-phenylquinazoline succinate] here?
Answer: stable

Question: And the “hygroscopicity of the isolated product” value ([5]; succinate)?
Answer: not hygroscopic

Question: What does the source list for `O.O.O.O.O=C(O)C(O)C(O)C(=O)O.c1ccc(-c2ncc3cc(-n4ccnc4)ccc3n2)cc1` [tartrate salt form B, 6-(1H-imidazol-1-yl)-2-phenylquinazoline (L)-tartrate tetrahydrate]?
Answer: thermal stability of crystalline form ([1]; 40° C., RH 85%, 7 days, XRPD): stable; thermal stability of crystalline form [1, 8]: gives rise to the amorphous form

Question: Which “thermal stability of crystalline form” value ([1]; 40° C., RH 85%, 7 days, XRPD) does the source give for `O.O=C(O)C(O)C(O)C(=O)O.c1ccc(-c2ncc3cc(-n4ccnc4)ccc3n2)cc1` [tartrate salt form C, 6-(1H-imidazol-1-yl)-2-phenylquinazoline (L)-tartrate monohydrate] here?
Answer: stable

Question: And the “thermal stability of crystalline form” value [1, 8]?
Answer: stable

Question: Which “thermal stability of crystalline form” value ([1]; 40° C., RH 85%, 7 days, XRPD) does the source give for `O=C(O)C(O)C(O)C(=O)O.c1ccc(-c2ncc3cc(-n4ccnc4)ccc3n2)cc1` [tartrate salt form D, 6-(1H-imidazol-1-yl)-2-phenylquinazoline (L)-tartrate] here?
Answer: gives an XRPD corresponding to form A

Question: And the “thermal stability of crystalline form” value [1, 8]?
Answer: an amorphous product
